According to patent publication US20220119354A1, “DIAMINO-SUBSTITUTED PYRIDINES AND PYRIMIDINES AS HERBICIDES” (FMC Corporation, priority 2019, published 2022):

Experiments:
Type in all cases: in vivo
[1] = tested on: barnyardgrass (Echinochloa crus-galli); assay: Test A preemergence, barnyardgrass; conditions: 0 to 100 scale, 0 is no effect, 100 is complete control
Summary of the method: (§1)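 Greenhouse test; plants at one- to two-leaf stage (2–10 cm) sprayed postemergence with compound in non-phytotoxic solvent/surfactant mix, or soil sprayed preemergence after seeding in loam–sand blend. Injury rated visually versus untreated controls after about 10 d, 0 (no effect) to 100 (complete control).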

kochia (Kochia scoparia) [2] = assay: Test A preemergence, kochia; conditions: 0 to 100 scale, 0 is no effect, 100 is complete control
Summary of the method: as §1

[3] = tested on: ragweed (common ragweed, Ambrosia elatior); assay: Test A preemergence, ragweed; conditions: 0 to 100 scale, 0 is no effect, 100 is complete control
Summary of the method: as §1

[4] = tested on: ryegrass, Italian (Lolium multiflorum); assay: Test A preemergence, Italian ryegrass; conditions: 0 to 100 scale, 0 is no effect, 100 is complete control
Summary of the method: as §1

[5] = tested on: foxtail, giant (Setaria faberii); assay: Test A preemergence, giant foxtail; conditions: 0 to 100 scale, 0 is no effect, 100 is complete control
Summary of the method: as §1

[6] = tested on: pigweed (Amaranthus retroflexus); assay: Test A preemergence, pigweed; conditions: 0 to 100 scale, 0 is no effect, 100 is complete control
Summary of the method: as §1

[7] = tested on: barnyardgrass (Echinochloa crus-galli); assay: Test A postemergence, barnyardgrass; conditions: 0 to 100 scale, 0 no effect, 100 complete control
Summary of the method: as §1

kochia (Kochia scoparia) [8] = assay: Test A postemergence, kochia; conditions: 0 to 100 scale, 0 no effect, 100 complete control
Summary of the method: as §1

[9] = tested on: ragweed (common ragweed, Ambrosia elatior); assay: Test A postemergence, ragweed; conditions: 0 to 100 scale, 0 no effect, 100 complete control
Summary of the method: as §1

[10] = tested on: ryegrass, Italian (Lolium multiflorum); assay: Test A postemergence, Italian ryegrass; conditions: 0 to 100 scale, 0 no effect, 100 complete control
Summary of the method: as §1

[11] = tested on: foxtail, giant (Setaria faberii); assay: Test A postemergence, giant foxtail; conditions: 0 to 100 scale, 0 no effect, 100 complete control
Summary of the method: as §1

[12] = tested on: pigweed (Amaranthus retroflexus); assay: Test A postemergence, pigweed; conditions: 0 to 100 scale, 0 no effect, 100 complete control
Summary of the method: as §1

[13] = tested on: wheat (Triticum aestivum); assay: Test A postemergence, wheat; conditions: 0 to 100 scale, 0 no effect, 100 complete control
Summary of the method: as §1

corn (Zea mays) = assay: Test A postemergence, corn; conditions: 0 to 100 scale, 0 no effect, 100 complete control
Summary of the method: as §1

[14] = tested on: blackgrass (Alopecurus myosuroides); assay: Test A postemergence, blackgrass; conditions: 0 to 100 scale, 0 no effect, 100 complete control
Summary of the method: as §1

[15] = tested on: galium (catchweed bedstraw, Galium aparine); assay: Test A postemergence, galium; conditions: 0 to 100 scale, 0 no effect, 100 complete control
Summary of the method: as §1

rice (Oryza sativa) = assay: Test B flooded paddy test, rice; conditions: Flood, 250 g ai/ha, applied to paddy water, 2-leaf stage, visual evaluation after 13 to 15 d
Summary of the method: (§2)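 Each response is a visual 0–100 rating made against untreated controls, where 0 is no effect and 100 is complete control; a dash marks no result. Compound was dosed into 3 cm paddy water over 2-leaf plants, assessed after 13 to 15 d.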

[16] = tested on: sedge, umbrella (small-flower umbrella sedge, Cyperus difformis); assay: Test B flooded paddy test, umbrella sedge; conditions: Flood, 250 g ai/ha, applied to paddy water, 2-leaf stage, visual evaluation after 13 to 15 d
Summary of the method: as §2

[17] = tested on: ducksalad (Heteranthera limosa); assay: Test B flooded paddy test, ducksalad; conditions: Flood, 250 g ai/ha, applied to paddy water, 2-leaf stage, visual evaluation after 13 to 15 d
Summary of the method: as §2

[18] = tested on: barnyardgrass (Echinochloa crus-galli); assay: Test B flooded paddy test, barnyardgrass; conditions: Flood, 250 g ai/ha, applied to paddy water, 2-leaf stage, visual evaluation after 13 to 15 d
Summary of the method: as §2

| Structure (SMILES) | Barnyardgrass plant response rating ([1]; 125 g ai/ha) | Barnyardgrass plant response rating ([1]; 500 g ai/ha) | Kochia plant response rating (kochia (Kochia scoparia) [2]; 125 g ai/ha) | Kochia plant response rating (kochia (Kochia scoparia) [2]; 500 g ai/ha) | Ragweed plant response rating ([3]; 125 g ai/ha) | Ragweed plant response rating ([3]; 500 g ai/ha) | Ryegrass, Italian plant response rating ([4]; 125 g ai/ha) | Ryegrass, Italian plant response rating ([4]; 500 g ai/ha) | Foxtail, Giant plant response rating ([5]; 125 g ai/ha) | Foxtail, Giant plant response rating ([5]; 500 g ai/ha) | Pigweed plant response rating ([6]; 125 g ai/ha) | Pigweed plant response rating ([6]; 500 g ai/ha) | Plant response rating, Barnyardgrass ([7]; 125 g ai/ha) | Plant response rating, Barnyardgrass ([7]; 500 g ai/ha) | Plant response rating, Kochia (kochia (Kochia scoparia) [8]; 125 g ai/ha) | Plant response rating, Kochia (kochia (Kochia scoparia) [8]; 500 g ai/ha) | Plant response rating, Ragweed ([9]; 125 g ai/ha) | Plant response rating, Ragweed ([9]; 500 g ai/ha) | Plant response rating, Ryegrass, Italian ([10]; 125 g ai/ha) | Plant response rating, Ryegrass, Italian ([10]; 500 g ai/ha) | also measured |
| --- | --- | --- | --- | --- | --- | --- | --- | --- | --- | --- | --- | --- | --- | --- | --- | --- | --- | --- | --- | --- | --- |
| C[C@@H](Nc1ncc(C(F)(F)F)c(N)n1)c1coc2cc(Cl)ccc12 [Compound 55] | 80 | 80 | 40 | 90 | 100 | 100 | 20 | 70 | 50 | 90 | 80 | 100 | 30 | 70 | 70 | 90 | 50 | 80 | 30 | 30 | Plant response rating, Foxtail, Giant ([11]; 125 g ai/ha): 20; Plant response rating, Foxtail, Giant ([11]; 500 g ai/ha): 90; Plant response rating, Pigweed ([12]; 125 g ai/ha): 100; Plant response rating, Pigweed ([12]; 500 g ai/ha): 100; Plant response rating, Wheat ([13]; 125 g ai/ha): 0; Plant response rating, Wheat ([13]; 500 g ai/ha): 0; Plant response rating, Corn (corn (Zea mays); 125 g ai/ha): 10; Plant response rating, Corn (corn (Zea mays); 500 g ai/ha): 0; Plant response rating, Blackgrass ([14]; 125 g ai/ha): 0; Plant response rating, Blackgrass ([14]; 500 g ai/ha): 20; Plant response rating, Galium ([15]; 125 g ai/ha): 70; Plant response rating, Galium ([15]; 500 g ai/ha): 90; Plant response rating, Rice (0 to 100 scale, 0 is no effect, 100 is complete control) (rice (Oryza sativa)): 0; Plant response rating, Sedge, Umbrella (0 to 100 scale, 0 is no effect, 100 is complete control) [16]: 98; Plant response rating, Ducksalad (0 to 100 scale, 0 is no effect, 100 is complete control) [17]: 70; Plant response rating, Barnyardgrass (0 to 100 scale, 0 is no effect, 100 is complete control) [18]: 30 |
| C[C@H](Nc1ncc(C(F)(F)F)c(N)n1)c1coc2ccc(F)cc12 [Compound 56] | 70 | 70 | 0 | 0 | 20 | 80 | 0 | 0 | 0 | 0 | 0 | 30 | 50 | 30 | 0 | 40 | 0 | 30 | 0 | 0 | Plant response rating, Foxtail, Giant ([11]; 125 g ai/ha): 10; Plant response rating, Foxtail, Giant ([11]; 500 g ai/ha): 20; Plant response rating, Pigweed ([12]; 125 g ai/ha): 20; Plant response rating, Pigweed ([12]; 500 g ai/ha): 60; Plant response rating, Wheat ([13]; 125 g ai/ha): 0; Plant response rating, Wheat ([13]; 500 g ai/ha): 0; Plant response rating, Corn (corn (Zea mays); 125 g ai/ha): 0; Plant response rating, Corn (corn (Zea mays); 500 g ai/ha): 10; Plant response rating, Blackgrass ([14]; 125 g ai/ha): 0; Plant response rating, Blackgrass ([14]; 500 g ai/ha): 0; Plant response rating, Galium ([15]; 125 g ai/ha): 0; Plant response rating, Galium ([15]; 500 g ai/ha): 0; Plant response rating, Rice (0 to 100 scale, 0 is no effect, 100 is complete control) (rice (Oryza sativa)): 0; Plant response rating, Sedge, Umbrella (0 to 100 scale, 0 is no effect, 100 is complete control) [16]: 0; Plant response rating, Ducksalad (0 to 100 scale, 0 is no effect, 100 is complete control) [17]: 0; Plant response rating, Barnyardgrass (0 to 100 scale, 0 is no effect, 100 is complete control) [18]: 0 |
| CC(=O)c1cnc(NC(C)c2cc3ccccc3s2)nc1N (stereo not drawn) [Compound 57] | 0 | 70 | 0 | 60 | 60 | 100 | 20 | 50 | 30 | 90 | 30 | 100 | 0 | 70 | 0 | 60 | 40 | 70 | 0 | 60 | Plant response rating, Foxtail, Giant ([11]; 125 g ai/ha): 0; Plant response rating, Foxtail, Giant ([11]; 500 g ai/ha): 50; Plant response rating, Pigweed ([12]; 125 g ai/ha): 60; Plant response rating, Pigweed ([12]; 500 g ai/ha): 80; Plant response rating, Wheat ([13]; 125 g ai/ha): 0; Plant response rating, Wheat ([13]; 500 g ai/ha): 20; Plant response rating, Corn (corn (Zea mays); 125 g ai/ha): 0; Plant response rating, Corn (corn (Zea mays); 500 g ai/ha): 20; Plant response rating, Blackgrass ([14]; 125 g ai/ha): 0; Plant response rating, Blackgrass ([14]; 500 g ai/ha): 10; Plant response rating, Galium ([15]; 125 g ai/ha): 60; Plant response rating, Galium ([15]; 500 g ai/ha): 80; Plant response rating, Rice (0 to 100 scale, 0 is no effect, 100 is complete control) (rice (Oryza sativa)): 0; Plant response rating, Sedge, Umbrella (0 to 100 scale, 0 is no effect, 100 is complete control) [16]: 80; Plant response rating, Ducksalad (0 to 100 scale, 0 is no effect, 100 is complete control) [17]: 30; Plant response rating, Barnyardgrass (0 to 100 scale, 0 is no effect, 100 is complete control) [18]: 0 |
